Laboratory results published in patent US8772244B2, “Tubulin inhibitors” (R&D Biopharmaceuticals GmbH, priority 2009, dated 2014).

Assays:
Type in all cases: cell-based
MCF-7 TX200 = experiment: BrdU-Assay, IC-50 against cancer cell line MCF-7 TX200; details: Homo sapiens; MCF-7 TX200, BrdU-Assay
Excerpt: (§1) Determination of the IC-50 Concentration Against Various Cancer Cell Lines
(§2) The activity of some representative example compounds of the present invention has been determined with the BrdU-Assay as described in: Porstmann T., Ternynck T., Avrameas S. (1985) “Quantification of 5-bromo-2-deoxyuridine incorporation into DNA: an enzyme immunoassay for the assessment of the lymphoid cell proliferative response.” J. Immunol. Methods 82: 169-179.

HCT-116 = experiment: BrdU-Assay, IC-50 against cancer cell line HCT-116; details: Homo sapiens; HCT-116, BrdU-Assay
Excerpt: as §1, §2

MCF-7 MX100 = experiment: BrdU-Assay, IC-50 against cancer cell line MCF-7 MX100; details: MCF7/MX100; MCF-7 MX100, BrdU-Assay
Excerpt: as §1, §2

Skov-3 = experiment: BrdU-Assay, IC-50 against cancer cell line Skov-3; details: Homo sapiens, SK-OV-3; Skov-3, BrdU-Assay
Excerpt: as §1, §2

MCF-7 VP = experiment: BrdU-Assay, IC-50 against cancer cell line MCF-7 VP; details: Homo sapiens, MCF7-VP
Excerpt: as §1, §2

MCF-7 = experiment: BrdU-Assay, IC-50 against cancer cell line MCF-7; details: Homo sapiens, MCF7; MCF-7, BrdU-Assay
Excerpt: as §1, §2

Row | Structure (SMILES) | IC50 (MCF-7 TX200) | IC50 (HCT-116) | IC50 (MCF-7 MX100) | IC50 (Skov-3) | IC50 (MCF-7 VP) | IC50 (MCF-7)
1 | CCCN(C(=O)C(NC(=O)C1CCCCN1C)[C@@H](C)CC)[C@H](C[C@@H](OC(C)=O)c1nc(C(=O)N[C@@H](Cc2ccccc2)C[C@H](C)CO)cs1)C(C)C (stereo partly drawn) [MSRD334] | 15.6 nM | 1.06 nM | 0.62 nM | 1.05 nM | 0.88 nM | 0.57 nM
2 | CC[C@H](C)C(NC(=O)C1CCCCN1C)C(=O)N(C)[C@H](C[C@@H](OC(C)=O)c1nc(C(=O)N[C@@H](Cc2ccccc2)C[C@H](C)CO)cs1)C(C)C (stereo partly drawn) [MSRD345] | 50.6 nM | 1.35 nM | 0.28 nM | 1.18 nM | 1.2 nM | 0.4 nM
3 | CCCN(C(=O)C(NC(=O)C1CCCCN1C)[C@@H](C)CC)[C@H](C[C@@H](OCOC)c1nc(C(=O)N[C@@H](Cc2ccccc2)C[C@H](C)CO)cs1)C(C)C (stereo partly drawn) [MSRD368] | 322 nM | 41.1 nM | 4.01 nM | 29.9 nM | 6.38 nM | 3.91 nM
4 | CCCN(C(=O)C(NC(=O)C1CCCCN1C)[C@@H](C)CC)[C@H](C[C@@H](OC(C)=O)c1nc(C(=O)N[C@H](CO)Cc2ccccc2)cs1)C(C)C (stereo partly drawn) [MSRD390] | 24.4 nM | 1.1 nM | 0.2 nM | 1.06 nM | 0.54 nM | 0.27 nM
5 | CC[C@H](C)C(NC(=O)C1CCCCN1C)C(=O)N[C@H](C[C@@H](OC(C)=O)c1nc(C(=O)N[C@@H](Cc2ccccc2)C[C@H](C)CO)cs1)C(C)C (stereo partly drawn) [SDRD28] | 370 nM | 4.31 nM | 1.41 nM | 3.35 nM | 3.04 nM | 0.55 nM
